From PubChem BioAssay AID1552 (Sanford-Burnham Center for Chemical Genomics, 2009)
Calls of active or inactive are those of the source. No rule for the calls is given here.

biological target: Ubiquitin-conjugating enzyme E2 N (Homo sapiens) (UniProt P61088); assay: UBE2N binders by NMR, biophysical, purified protein (AID 1552); conditions: NMR binding to purified UBE2N
Sequence (P61088 whole entry, looked up): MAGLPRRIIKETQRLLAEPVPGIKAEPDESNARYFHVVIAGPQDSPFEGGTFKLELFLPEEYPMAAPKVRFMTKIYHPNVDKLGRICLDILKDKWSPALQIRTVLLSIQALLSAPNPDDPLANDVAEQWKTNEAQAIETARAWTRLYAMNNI

Compound	Kd
Cc1cc(C)n(S(=O)(=O)c2ccc(C(C)(C)C)cc2)n1	> 4 mM (inactive)
Nc1c(/C=C2\C=Nc3ccccc32)c(=O)nc2scnn12	> 4 mM (inactive)
COc1ccc(-c2nnsc2N)cc1	> 4 mM (inactive)
NS(=O)(=O)c1ccc(F)cc1	> 4 mM (inactive)
CC(C)NC1CS(=O)(=O)CC1O (stereo not drawn)	> 4 mM (inactive)
c1cncc(Nc2nc(-c3ccncc3)cs2)c1	> 4 mM (inactive)
Nc1ccc2c(c1)COc1ccccc1O2	> 4 mM (inactive)
CCOc1cc(S(=O)(=O)N2CCOCC2)ccc1F	> 4 mM (inactive)
C=C[C@H]1CN2CC[C@H]1C[C@@H]2[C@H](O)c1ccnc2ccccc12	> 4 mM (inactive)
NC(=O)c1ccc(Cl)c(N2C(=O)CCC2=O)c1	> 4 mM (inactive)
COc1cc2occc2c2oc(=O)ccc12	> 4 mM (inactive)
CC(=O)NC(=S)Nc1ccccc1C	> 4 mM (inactive)
CC(=O)Nc1cccc(-c2nnc3n2CC(C)S3)c1 (stereo not drawn)	> 4 mM (inactive)
Cc1ccc(C(=O)N2CCOCC2)cc1Cl	> 4 mM (inactive)
Cc1cc(C)n(CCC(=O)O)n1	> 4 mM (inactive)
O=CN1CCN(C(=O)c2ccccc2F)CC1	> 4 mM (inactive)
CN1CCC(=NNC(=O)c2ccco2)CC1	> 4 mM (inactive)
COc1ccc(Cl)cc1-c1nc(-c2ccncc2)no1	> 4 mM (inactive)
O=C1C2C3C=CC(C3)C2C(=O)N1CCCO (stereo not drawn)	> 4 mM (inactive)
N=C1/C(=C\c2ccccc2)C(=O)N=C2SC=NN12	> 4 mM (inactive)
Nc1ncccc1OCc1ccccc1	> 4 mM (inactive)
CCOC12NC(=O)CC(=O)N1C(c1ccccc1)=CS2 (stereo not drawn)	> 4 mM (inactive)
CC[C@]12CCCN3CCc4c(n(c5ccccc45)[C@](O)(C(=O)OC)C1)[C@@H]32	> 4 mM (inactive)
Cn1nc(-c2ccccc2)cc1N	> 4 mM (inactive)

Compound	Kd
O=c1c2ccccc2oc2ccccc12	> 4 mM (inactive)
CCOC(=O)c1c(-c2ccncc2)csc1N	> 4 mM (inactive)
O=C1C=CC(=O)N1c1ccccc1O	> 4 mM (inactive)
O=C(CSc1ncn[nH]1)c1ccc2c(c1)OCCO2	> 4 mM (inactive)
CN1C(=O)c2ccc(C(=O)NC3CCCCC3)cc2C1=O	> 4 mM (inactive)
CC(=O)c1cccc(NC2=NCC(C)(C)S2)c1	> 4 mM (inactive)
CN(C)C(=O)N1CCN(C(=O)c2ccco2)CC1	> 4 mM (inactive)
c1csc(-c2nnc3ccccn23)c1	> 4 mM (inactive)
O=C(O)C1Cc2c([nH]c3ccccc23)CN1 (stereo not drawn)	> 4 mM (inactive)
NC1=NC(=O)/C(=C\c2cccc(C(=O)O)c2)S1	> 4 mM (inactive)
Cc1cc(C)n(-c2ccc(N)cc2)n1	> 4 mM (inactive)
CC1(C(=O)O)CC2C=CC1C2 (stereo not drawn)	> 4 mM (inactive)
O=C(Nc1ncccn1)c1cccc(F)c1	> 4 mM (inactive)
O=c1cnnc(SCCc2ccccc2)[nH]1	> 4 mM (inactive)
COc1c(C(=O)N2CCCC2)ccc2ccccc12	> 4 mM (inactive)
NC1=NC(=O)C(Cc2ccccc2)S1 (stereo not drawn)	> 4 mM (inactive)
O=C(CSc1ccnc(=O)[nH]1)NCc1ccco1	> 4 mM (inactive)
Cc1ccc(/C=C2/NC(=S)NC2=O)s1	> 4 mM (inactive)
O=C1C[C@@H](c2ccc(O)cc2)Oc2cc(O)cc(O)c21	> 4 mM (inactive)
Cn1ccc(NC(=S)Nc2cccc([N+](=O)[O-])c2)n1	> 4 mM (inactive)
O=C(O)Cn1nnn(-c2ccccc2)c1=S	> 4 mM (inactive)
CC(=O)NC(C)C12CC3CC(CC(C(=O)O)(C3)C1)C2 (stereo not drawn)	> 4 mM (inactive)
O=[n+]1c2c(n([O-])c3ccccc31)CCCC2	> 4 mM (inactive)
C/C=C(\C)C(=O)O[C@@H]1c2c(ccc3ccc(=O)oc23)OC(C)(C)[C@@H]1OC(C)=O	> 4 mM (inactive)

Compound	Kd
O=C1C2C3C=CC(C3)C2C(=O)N1c1cccnc1 (stereo not drawn)	> 4 mM (inactive)
CC(=O)Nc1ccc2c(C)cc(=O)[nH]c2c1	> 4 mM (inactive)
c1ccc(-c2noc(-c3ccco3)n2)nc1	> 4 mM (inactive)
NC(CC(=O)O)C(=O)Nc1ccc(Cl)cc1 (stereo not drawn)	> 4 mM (inactive)
O=C(CSc1cccc2cccnc12)N1CCCC1	> 4 mM (inactive)
CCCCCC1C(=O)CCC1CC(=O)OC (stereo not drawn)	> 4 mM (inactive)
CC(=O)c1cnc(Nc2nc(C)c3ccccc3n2)nc1C	> 4 mM (inactive)
CC(=O)Nc1cccc(-c2nnc(-c3ccccc3)o2)c1	> 4 mM (inactive)
CC1(C)Cc2nc3n[nH]c(N)c3cc2CO1	> 4 mM (inactive)
Cc1sc2nc(C)n(NC(N)=O)c(=O)c2c1C	> 4 mM (inactive)
CS(=O)(=O)c1ccc(N)cc1	> 4 mM (inactive)
Cn1cc(Cl)c(C(=O)Nc2ccc(F)cc2F)n1	> 4 mM (inactive)
O=C1C2C3CCC(O3)C2C(=O)N1c1ccccc1 (stereo not drawn)	> 4 mM (inactive)
O=C(O)CN(CCCc1ccccc1)CC(=O)O	> 4 mM (inactive)
CCc1c(C(=O)Nc2ccncc2)csc1C	> 4 mM (inactive)
c1ccc2[nH]c(CCn3cncn3)nc2c1	> 4 mM (inactive)
Cc1cc(C)c(-c2cc(C(F)(F)F)no2)c(=O)[nH]1	> 4 mM (inactive)
O=C(O)c1ccc(-n2cccc2)cc1	> 4 mM (inactive)
c1ccc(SCc2nc(-c3cccnc3)no2)cc1	> 4 mM (inactive)
Cc1c(F)cccc1NS(=O)(=O)c1ccccc1C#N	> 4 mM (inactive)
Cn1cnc2c(=O)[nH]cc([N+](=O)[O-])c21	> 4 mM (inactive)
CC1(O)CC2C=CC1C2 (stereo not drawn)	> 4 mM (inactive)
C=C1C(=O)O[C@@H]2C3OC3(C)CC/C=C(\C)CC[C@@H]12 (stereo partly drawn)	> 4 mM (inactive)
Cc1ccc2cc(CO)ccc2n1	> 4 mM (inactive)

Compound	Kd
O=C(Cc1cccs1)Nc1ccon1	> 4 mM (inactive)
Fc1cccc(Cl)c1CN1CCCNCC1	> 4 mM (inactive)
CCCNC(=O)CSc1ncccc1C(=O)O	> 4 mM (inactive)
O=C(O)c1ccc2sccc2c1	> 4 mM (inactive)
COc1ccccc1NS(=O)(=O)c1c[nH]c(=O)[nH]c1=O	> 4 mM (inactive)
O=C(NC(=S)NC1CCSC1=O)c1ccco1 (stereo not drawn)	> 4 mM (inactive)
Cc1ccn(S(=O)(=O)c2ccc(C(C)(C)C)cc2)n1	> 4 mM (inactive)
Nc1ncnc2c1ncn2CCN1CCCCC1	> 4 mM (inactive)
c1ccc(-n2nnnc2-n2cnc3ccccc32)cc1	> 4 mM (inactive)
O=C(NCc1cccs1)c1ccc2c(c1)OCCO2	> 4 mM (inactive)
CC1(C)C=Cc2cc3ccc(=O)oc3cc2O1	> 4 mM (inactive)
O=C(O)C1CC(=O)N(C2Cc3ccccc3C2)C1 (stereo not drawn)	> 4 mM (inactive)
NC(=O)N1CCc2ccccc21	> 4 mM (inactive)
NC(=O)C1CCN(C(=O)Nc2ccccc2)CC1	> 4 mM (inactive)
O=C(Nc1cccc(O)c1)c1ccccc1	> 4 mM (inactive)
O=C(O)c1cc(O)c(O)c(O)c1	> 4 mM (inactive)
CC1CC2(NC(=O)NC2=O)C(C)CN1C (stereo not drawn)	> 4 mM (inactive)
CC(=O)OCC(OC(C)=O)C(OC(C)=O)C(OC(C)=O)C(OC(C)=O)C(COC(C)=O)OC(C)=O (stereo not drawn)	> 4 mM (inactive)
C[C@H]1OC(O[C@H]2[C@@H](O)CC(O[C@H]3[C@@H](O)C[C@H](O[C@H]4CC[C@]5(C)C6CC[C@]7(C)[C@@H](C8=CC(=O)OC8)[C@@H](O)C[C@]7(O)[C@@H]6CC[C@@H]5C4)O[C@@H]3C)O[C@@H]2C)C[C@H](O)C1O (stereo partly drawn)	> 4 mM (inactive)
COC(=O)c1c(SC)nc(-c2ccccc2)[nH]c1=O	> 4 mM (inactive)
COc1ccc2nc(N)sc2n1	> 4 mM (inactive)
O=c1[nH]cc(COCc2ccccc2)c(=O)[nH]1	> 4 mM (inactive)
O=C1C=C(Nc2ccccc2O)c2ccccc2C1=O	> 4 mM (inactive)
O=C(O)Cn1cc(C(=O)c2cccs2)c2ccccc21	> 4 mM (inactive)

Compound	Kd
O=c1[nH]c2c(c(=O)n1C1CCCCC1)CCC2	> 4 mM (inactive)
COc1ccc2c3c1O[C@H]1C[C@@H](O)C=C[C@@]31CCN(C)C2	> 4 mM (inactive)
Cc1noc(C)c1C(=O)N1CCC(Cc2ccccc2)CC1	> 4 mM (inactive)
COc1ccc(NC(=O)/C=N/O)cc1	> 4 mM (inactive)
CC(C)=CCOc1c2occc2cc2ccc(=O)oc12	> 4 mM (inactive)
Cc1cc(O)cc(=O)o1	> 4 mM (inactive)
O=C(c1ccc(F)cc1)C1CCNCC1	> 4 mM (inactive)
COC1C(O)C(O[C@H]2CC[C@]3(C=O)C4C(CC[C@]3(O)C2)[C@@]2(O)CC[C@H](C3=CC(=O)OC3)[C@@]2(C)C[C@H]4OC(C)=O)OC(C)C1OC(C)=O (stereo partly drawn)	> 4 mM (inactive)
CSc1ccc(/C=N/n2c(C)nnc2C)cc1	> 4 mM (inactive)
CC(C)=NNC(=O)C(=O)Nc1ccc(F)cc1	> 4 mM (inactive)
Cc1ccc(C)n1NC(=O)c1cccs1	> 4 mM (inactive)
Cc1oc(-c2ccccc2)cc1CO	> 4 mM (inactive)
CC1(C)CCC(C)(C)c2cc(C(=O)O)ccc21	> 4 mM (inactive)
COc1ccc(N/C(N)=N\c2nc(C)cc(C)n2)cc1	> 4 mM (inactive)
O=C(O)c1cn(-c2ccccc2)nc1-c1ccncc1	> 4 mM (inactive)
C[C@H]1C[C@@H](O)[C@]2(O)[C@@]13CC(=O)OC[C@@]2(C)[C@](C)(O)C(=O)C3	> 4 mM (inactive)
O=C1CNc2cc(C(=O)O)ccc2N1	> 4 mM (inactive)
Cc1cc(NC(=O)c2ccc3c(c2)OCO3)no1	> 4 mM (inactive)
Cc1c(C(=O)Nc2ccccc2)sc(N)c1C(N)=O	> 4 mM (inactive)
N#Cc1cc2c(nc1SCc1ccncc1)CCC2	> 4 mM (inactive)
COc1c(-c2coc3cc4c(cc3c2=O)CC(O)C(C)(C)O4)ccc2c1C=CC(C)(C)O2 (stereo not drawn)	> 4 mM (inactive)
CC(C)(O)[C@@H]1[C@H]2OC(=O)[C@@H]1[C@]1(O)C[C@H]3O[C@]34C(=O)O[C@H]2[C@]14C	> 4 mM (inactive)
